1 molecule from publication PMC4382313 (Chembiochem : a European journal of chemical biology, 2014) can be followed below.

For this assay, the target named is WelP2 (Hapalosiphon welwitschii, UniProt A0A067YX78). The assay is described as follows: in vitro prenyl diphosphate synthase assay. The format is biochemical. The note with it: product formed; details in SI Methods.

With `CC(C)=CCC/C(C)=C/COP(=O)(O)OP(=O)(O)O` [GPP], the “in vitro prenyl diphosphate synthase assay” value was “demonstrated that WelP2 is a dedicated geranyl diphosphate synthase to provide GPP (SI Methods)”.
